Results taken from paper PMC3510438, “The transmembrane tyrosines Y56, Y91 and Y167 play important roles in determining the affinity and transport rate of the rabbit proton-coupled peptide transporter PepT1” (The International Journal of Biochemistry & Cell Biology, 2009).
Numbering of substitutions follows the chain as printed.

What was measured:
Test in all cases: Uptake of tracer [3H]-D-Phe-L-Gln into Xenopus oocytes
Format in all cases: cell-based, rabbit
Conditions in all cases: both pHout 5.5 and 7.4
Y56F/T58Y-rPepT1 = molecular target: T1, Y56F/T58Y-rPepT1 (Oryctolagus cuniculus, UniProt P36836, T58Y/Y56F)
T1 construct: expressed in transfected cells; host or cells: Xenopus laevis oocytes injected with cRNA
T1 sequence (P36836 1-707 Y56F/T58Y): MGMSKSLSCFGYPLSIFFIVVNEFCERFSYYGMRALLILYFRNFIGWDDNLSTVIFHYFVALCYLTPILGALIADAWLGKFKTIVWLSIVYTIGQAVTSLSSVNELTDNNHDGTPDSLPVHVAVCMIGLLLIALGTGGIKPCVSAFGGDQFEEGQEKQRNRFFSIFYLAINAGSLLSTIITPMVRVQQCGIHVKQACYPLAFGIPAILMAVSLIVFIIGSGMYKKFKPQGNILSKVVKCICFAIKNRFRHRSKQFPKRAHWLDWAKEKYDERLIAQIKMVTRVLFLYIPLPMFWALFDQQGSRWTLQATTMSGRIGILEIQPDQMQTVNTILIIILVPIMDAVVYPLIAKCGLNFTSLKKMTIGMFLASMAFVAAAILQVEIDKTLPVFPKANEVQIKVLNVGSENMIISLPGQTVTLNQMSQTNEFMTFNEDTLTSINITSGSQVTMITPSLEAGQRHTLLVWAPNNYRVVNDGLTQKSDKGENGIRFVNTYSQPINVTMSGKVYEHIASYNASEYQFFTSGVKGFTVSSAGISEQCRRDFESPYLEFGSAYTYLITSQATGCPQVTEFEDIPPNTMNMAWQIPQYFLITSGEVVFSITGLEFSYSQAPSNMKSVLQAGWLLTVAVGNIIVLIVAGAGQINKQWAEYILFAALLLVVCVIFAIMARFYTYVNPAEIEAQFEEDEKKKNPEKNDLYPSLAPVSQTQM
Procedure: (§1) rPepT1 constructs were linearised with XbaI (New England Biolabs, UK) and cRNA generated by in vitro transcription (T7 mMessage mMachine, Ambion, Cambridgeshire, UK). Xenopus laevis oocytes were obtained under MS222 anaesthesia (0.2%, w/v) in accordance with the UK Animals (Scientific Procedures) Act, 1986, and maintained at 18 °C in modified Barth's medium (88 mM NaCl, 1 mM KCl, 0.82 mM MgSO4, 2.4 mM NaHCO3, 0.42 mM CaCl2, 10 mM Hepes, 5 mM sodium pyruvate, 50 μg ml^−1 gentamicin (Fluka, Poole, UK), adjusted to pH 7.6 with 1 M NaOH). Transport measurements were performed at least 72 h after micro-injection of oocytes with 27nl cRNA (1 μg/μl), with medium changed daily.
(§2) Uptake of [^3H]-D-Phe-L-Gln (17.4 Ci/mmole, custom synthesised, Cambridge Research Biochemicals, Stockton-on-Tees, UK) was performed as previously described ([Meredith, 2004]). Briefly, 5 oocytes were incubated in 100 μl of uptake medium (95 mM NaCl, 2 mM KCl, 1 mM CaCl2, 0.42 mM MgCl2, 10 mM Tris/Hepes pH 7.4 or Tris/Mes pH 5.5) with tracer (0.4 μM) [^3H]-D-Phe-L-Gln. After incubation, the oocytes were washed sequentially five times in 1 ml of ice-cold 120 mM NaCl solution, lysed individually with 100 μl 2% (w/v) SDS and liquid scintillation counted. As a control non-injected oocytes were also incubated in uptake medium with D-Phe-L-Gln as above.

Y167Q-rPepT1 = molecular target: T2, Y167Q-rPepT1 (Oryctolagus cuniculus, UniProt P36836, Y167Q)
T2 construct: expressed in transfected cells; host or cells: Xenopus laevis oocytes injected with cRNA
T2 sequence (P36836 1-707 Y167Q): T1 sequence (P36836 1-707 Y56F/T58Y) with F56Y, Y58T, Y167Q
Procedure: as §1, §2

Y167R-rPepT1 = molecular target: T3, Y167R-rPepT1 (Oryctolagus cuniculus, UniProt P36836, Y167R)
T3 construct: expressed in transfected cells; host or cells: Xenopus laevis oocytes injected with cRNA
T3 sequence (P36836 1-707 Y167R): T1 sequence (P36836 1-707 Y56F/T58Y) with F56Y, Y58T, Y167R
Procedure: as §1, §2

Measured: reduction of uptake compared to the wild-type

[^3H]-D-Phe-L-Gln
> 90%: Y56F/T58Y-rPepT1 | Y167Q-rPepT1 | Y167R-rPepT1
